Data published in patent publication US12410448B2, “Nanoparticle compositions containing sugar functionalized nucleic acid carriers” (TIBA Biotech LLC, priority 2021, dated 2025).

Key:
[1] = Encapsulation efficiency by Ribogreen assay; assay type: physicochemical; settings: nanoparticle composition with SEAP mRNA, formulated at pH 5; dendron:DOPE:cholesterol:DMG-PEG2k 1:0.6:2.88:0.1
Text: As used herein, “encapsulated” can refer to a nanoparticle that provides an active agent or therapeutic agent with full encapsulation, partial encapsulation, or both. In an embodiment, the therapeutic agent is a nucleic acid (as a non-limiting example, a messenger RNA), In a preferred embodiment, the nucleic acid is fully encapsulated in the nanoparticle. In the context of nucleic acid therapeutic agents, full encapsulation may be determined by a Ribogreen® assay. RiboGreen® is an ultra-sensitive fluorescent nucleic acid stain for quantitating oligonucleotides and single-stranded DNA or RNA in solution (available from Thermo Fisher Scientific-US).
Nanoparticles containing the deoxy sugar-modified polyesteramine dendron (e.g PE Dendron_G2-2 deoxyGlucose-A1-Ricinoleic):DOPE:cholesterol:DMG-PEG2k at molar ratios of 1:0.6:2.88:0.1 were formulated using NanoAssembir Benchtop (Precision NanoSystems Inc, Vancouver, BC, Canada)). RNA was diluted with DNase/RNase-Free, endotoxin free distilled water and sterile citrate buffer to a final desired pH. […] Encapsulation efficiency was measured to be 95% for the nanoparticle composition containing PE Dendron_G2-2 deoxyGlucose-A1-Ricinoleic and SEAP mRNA (formulated at pH 5) using Ribogreen® assay (Geall et al. 10.1073/pnas.1209367109 which is incorporated herein by reference as if fully set forth). […]

[2] = tested on: SARS-CoV-2 Spike protein; assay: COVID-19 Spike trimer direct serum ELISA after vaccination; assay type: in vivo
[3] = tested on: BHK cells; assay: In vitro SEAP production; assay type: cell-based
Method: To test the ability of the nanoparticles formulated with different deoxy sugar based dendrons to express SEAP in vitro, BHK cells were treated with nanoparticles. Each well of a 12 well dish of BHKs was treated with 20 μL (approximately 1 μg) of each formulation product diluted into a final volume of 500 μL with a 1:1 Optimem:PBS mix. The nontreated wells had 500 μL of 50/50 PBS/OptiMEM. Twenty four hours post-treatment or transfection, conditioned media from each culture was collected. The amount of SEAP was quantified using the Invitrogen NovaBright™ Phospha-Light™ EXP Assay kits for SEAP detection according to the manufacturer's protocol. The amount of SEAP in the media samples are reported in Arbitrary Units (A.U.) as measured in a BioTek Synergy HTX microplate reader. Error bars are ±S.E.M. Referring to FIG. 4a, it was observed that the SEAP amount was higher with the PE Dendron_G2-2 deoxyGlucose-A1-Ricinoleic than the other regioisomers: PE Dendron_G2-1 deoxyGlucose-A1-Ricinoleic and PE Dendron_G2-6 deoxyGlucose-A1-Ricinoleic. […]

[4] = Hydrodynamic size measurement by dynamic light scattering (DLS); assay type: physicochemical; settings: nanoparticle composition with SEAP mRNA
[5] = tested on: SEAP expression; assay: In vivo SEAP production, deoxy sugar dendrons; parameters: species or system mice; settings: FIG. 4 legend; SEAP mRNA nanoparticles
Method: To test formulations of different monosaccharides based dendrons, the secreted embryonic alkaline phosphatase SEAP reporter system was used. For in vivo tests, mice were injected with nanoparticles at a dose of 5 ug of SEAP mRNA, and 16 hrs later, serum was collected from the mice. The amount of […] using the Invitrogen NovaBright™ Phospha-Light™ EXP Assay kits for SEAP detection according to the manufacturer's protocol. The amount of SEAP in the mouse serum samples are reported in Arbitrary Units (A.U.) as measured in a BioTek Synergy HTX microplate reader. Error bars are±S.E.M. Referring to FIG. 4b, it was observed that the SEAP amount was higher with the PE Dendron_G2-1 deoxyGlucose-A1-Ricinoleic than the other regioisomers: PE Dendron_G2-2 deoxyGlucose-A1-Ricinoleic and PE Dendron_G2-6 deoxyGlucose-A1-Ricinoleic. Referring to FIG. 5b, it was also observed that the SEAP amount was higher with the PE Dendron_G2-2 deoxyGlucose-A5-Ricinoleic than PE Dendron_G2-2 deoxyGlucose-A1-Ricinoleic indicating pKa of the ionizable delivery molecules influences the ability of the nanoparticles to deliver functionally active RNA.

CCCCCC[C@H](O)C/C=C\CCCCCCCC(=O)NCCCN(C)CCCNC(=O)OCC(C)(COC(=O)NCCCN(C)CCCNC(=O)CCCCCCC/C=C\C[C@@H](O)CCCCCC)C(=O)OCC(C)(COC(=O)C(C)(COC(=O)NCCCN(C)CCCNC(=O)CCCCCCC/C=C\C[C@@H](O)CCCCCC)COC(=O)NCCCN(C)CCCNC(=O)CCCCCCC/C=C\C[C@@H](O)CCCCCC)C(=O)OCc1cn([C@H]2C(O)O[C@H](CO)[C@@H](O)[C@@H]2O)nn1 (some centres unmarked)
Encapsulation efficiency [1]: 95% | Immunogenicity upon IM administration (anti-Spike IgG titer) ([2]; compared with Dlin-MC3-DMA control): superior | Endpoint dilution titer of serum anti-Spike IgG ([2]; compared with PE Dendron_G2-2 deoxyGlucose-A5-Ricinoleic): higher | SEAP amount in conditioned media ([3]; FIG. 4a, BHK cells, 24 h, about 1 μg, compared with regioisomers 1 deoxyGlucose-A1 and 6 deoxyGlucose-A1): higher | SEAP protein production in vitro ([3]; FIG. 4 legend, SEAP mRNA nanoparticles): resulted in SEAP protein production | Nanoparticle size at strongest intensity (Z average, DLS) [4]: 113.3 nm·days | Polydispersity index of size distribution ([4]; single peak): low | SEAP protein production in vivo [5]: resulted in SEAP protein production
